# Test results reported in PubChem BioAssay AID1996.
# Details: buffer; pH 7.4; 200.0 µM
row,SMILES,solubility kinetic [µg/mL]
1,COc1ccc(CCC(C)N2CCc3ccccc3C2)cc1 (stereo not drawn),39.1
2,COc1ccc(OC)c2c(=O)cc(C(=O)O)[nH]c12,14.6
3,Cc1ccc(CSC2=NCCN2C(=O)c2ccc([N+](=O)[O-])cc2)cc1,6.3
4,Cc1ccc[n+](CC(=O)Nc2ccc([N+](=O)[O-])cc2)c1.[Cl-],> 46.2
5,C#CCn1c(C)cc(C)c(S(=O)(=O)c2ccccc2)c1=O,> 45.2
6,O=C(CN1CCCc2ccccc21)Nc1ccccc1[N+](=O)[O-],0.5
7,CCOc1ncccc1C(=O)Nc1ccc(S(=O)(=O)N2CC(C)CC(C)C2)cc1 (stereo not drawn),0.9
8,Clc1ccc(C2Nc3cccc4cccc(c34)N2)cc1,7.7
9,O=[N+]([O-])c1cccc(/C=N/n2cnnc2)c1,> 32.6
10,CN=C1S/C(=C\c2ccc(SC)cc2)C(=O)N1C,1.4
11,O=C(CNC(=O)c1ccc(Br)o1)NCc1ccccc1,> 50.6
12,CN1C(=O)C(CCC(N)=O)NC1=S (stereo not drawn),29.1
13,NC(=O)c1sc2nc3c(cc2c1N)CCCCCC3,22.3
14,O=C(NC1CCS(=O)(=O)C1)C1C2CC3CC(C2)CC1C3 (stereo not drawn),> 44.6
15,O=S(=O)(c1ccc(Cl)c2ccccc12)N1CCCC1,< 0.6
16,COc1cccc(CNC(=O)CC2Sc3ccccc3NC2=O)c1 (stereo not drawn),1.5
17,c1ccc2c3c([nH]c2c1)C1(CCNCC1)NCC3,34.7
18,CC1(C)[C@H]2CC[C@]1(C)[C@@H](OC(=O)C[N+]1(C)CCOCC1)C2.[I-],60.1
19,CCNC(=S)NC1CC2CCCC(C1)N2Cc1ccc(C)cc1 (stereo not drawn),47.7
20,CCCCn1c(CCl)nc2cc(S(=O)(=O)N3CCOCC3)ccc21,> 55.8

row,SMILES,solubility kinetic [µg/mL]
1,Cc1ccc(NC(=O)c2noc3c2CCC3)cc1C,4.7
2,Cn1cc(S(=O)(=O)Oc2ccccc2)c(=O)n(C)c1=O,39.5
3,Cn1cnc2c1c(=O)[nH]c(=O)n2Cc1ccccc1,> 38.4
4,COc1ccc(N2CCN(CC(=O)Nc3nc(C)cs3)CC2)cc1,49.6
5,Cc1ccc(NC(=O)CN2C(=O)S/C(=C\c3ccccn3)C2=O)cc1C,< 0.3
6,CCOC(=O)c1cnc2c(C)cccc2c1Nc1cccc(C(=O)O)c1.Cl,> 58
7,CN(Cc1ccccc1)C(=O)COC(=O)c1ccc(Br)o1,> 52.8
8,CCCCC#Cc1cncc(C(=O)NN)c1,> 32.6
9,COc1cccc(NC(=S)NC(=O)/C=C/c2ccco2)c1,11.2
10,CCc1nnc(NC(=O)CN2CC(C)OC(C)C2)s1 (stereo not drawn),> 42.7
11,C=CCN1C(=O)C(=O)N(CC(=O)NCC(=O)Nc2ccc(F)c(F)c2F)C1=O,> 59.7
12,Cc1cccc(Nc2nc(-c3sc(C)nc3C)cs2)c1,0.2
13,COc1cc(/C=C/[N+](=O)[O-])ccc1OC(=O)c1cc2ccccc2oc1=O,5.7
14,Cc1cc(C)cc(NC(=O)N2C3CCCC2CC(NC(=O)C2CC2)C3)c1 (stereo not drawn),1.6
15,CCOCCCNC(=S)N1CCC(C(=O)c2ccc(C)cc2)CC1,51.8
16,Cc1ccc(NC(=O)c2cccc3ccccc23)cc1,< 0.6
17,CC(C)Sc1nc(SCC(=O)O)c2c3c(sc2n1)COC(C)(C)C3,56.9
18,CCOC(=O)c1sc(=NC(=O)c2c(F)cccc2F)n(C)c1C,0.9
19,CC1CN(C(=O)CNC(=O)COc2ccccc2)CC(C)O1 (stereo not drawn),> 46
20,Cn1c(=O)oc2cc(S(=O)(=O)N3CCc4ccccc43)ccc21,0.5

row,SMILES,solubility kinetic [µg/mL]
1,CCOC(=O)c1cc(S(=O)(=O)NCc2ccco2)cn1C,> 46.9
2,CC(C)N=c1cc2n(-c3ccc(Cl)cc3)c3ccccc3nc-2cc1Nc1ccc(Cl)cc1,0.3
3,CC1(C)C(C(=O)O)N2C(=O)C(NC(=O)Cc3ccccc3)C2S1=O.O (stereo not drawn),38.7
4,c1cncc(-c2nc(NCC3CCCO3)c3ccccc3n2)c1 (stereo not drawn),> 46
5,CC(=O)Nc1ccc2nc(NC(=O)c3ccco3)sc2c1,4.9
6,Cc1ccccc1C(=O)OC1CCCN(C)C1.Cl (stereo not drawn),39.9
7,Cc1csc(SCC(=O)NCc2cccc(Cl)c2)n1,> 46.9
8,O=c1[nH]cccc1-c1nc2ccccc2n1Cc1ccc(F)cc1,47.7
9,CCC(C(=O)NC(C)c1ccccc1)C(=O)NC(C)c1ccccc1 (stereo not drawn),6.8
10,Cc1nc(NC(=O)COC(=O)CCc2ccccc2)c(Cl)cc1Cl,21.8
11,COc1cc2c(cc1OC)C(c1cccc(F)c1)CC(=O)N2 (stereo not drawn),> 45.2
12,Cc1ccc(CN2CCc3[nH]c(=S)[nH]c(=O)c3C2)cc1,10.5
13,Cc1ccc(C)c(NC(=O)c2cnccn2)c1,23.9
14,O=C(Cc1ccc(-c2ccccc2)cc1)Nc1ccccn1,12
15,O=C(CSc1nc2c(c(=O)[nH]1)CCC2)Nc1ccccc1Cl,8.8
16,COc1ccccc1NC(=O)COC(=O)c1[nH]c(=O)[nH]c(=O)c1N,> 50.1
17,CC1CCN(C(=O)NC(=O)c2ccccc2)CC1,> 36.9
18,O=C(OCc1nc2ccccc2s1)c1ccccc1O,4.8
